Values of other authors as cited in PubChem BioAssay AID1259409 (Chemical Carcinogenesis Research Information System (CCRIS), 2018).

Test system: rodent chemically induced tumor inhibition, incidence and multiplicity
Assay: CCRIS tumor inhibitor studies
Details: Route [Inhibitor]: ORAL

## CC1=C(/C=C/C(C)=C/C=C/C(C)=C/C(=O)Nc2ccc(O)cc2)C(C)(C)CCC1
Carcinogen: 1,2-DIMETHYLHYDRAZINE, 540-73-8, Dose [Inhibitor]: 2.0 MMOL/KG DIET DAILY STARTING 12 D AFTER CARCINOGEN TREATMENT THROUGH ABOUT 8 MO AFTER CARCINOGEN DOSE (STUDY DURATION, Species: RAT, Strain/Sex: F344/MALE, Target Tissue: Type of Lesion: COLON: ADENOCARCINOMA, Dose [Carcinogen]: 150 MG/KG BW ONCE, Promoter: NONE USED
  tumour outcome (control, treated, inhibition, significance): 10/39 (26%), 5/30 (17%), 35%, not significant
Carcinogen: 1,2-DIMETHYLHYDRAZINE, 540-73-8, Dose [Inhibitor]: 2.0 MMOL/KG DIET DAILY STARTING 12 D AFTER CARCINOGEN TREATMENT THROUGH ABOUT 8 MO AFTER CARCINOGEN DOSE (STUDY DURATION, Species: RAT, Strain/Sex: F344/MALE, Target Tissue: Type of Lesion: COLON: ADENOMA, Dose [Carcinogen]: 150 MG/KG BW ONCE, Promoter: NONE USED
  tumour outcome (control, treated, inhibition, significance): 23/39 (59%), 7/30 (23%), 61%, p<0.05
Carcinogen: 4-(METHYLNITROSAMINO)-1-(3-PYRIDYL)-1-BUTANONE [64091-50-5], Dose [Inhibitor]: 2 MMOL/KG IN DIET FOR 17 WK BEGINNING 1 WK PRIOR TO FIRST CARCINOGEN DOSE (STUDY DURATION: 17 WK), Species: MOUSE, Strain/Sex: A/J/FEMALE, Target Tissue: Type of Lesion: LUNG: ADENOMA, Dose [Carcinogen]: 10 UMOL ONCE 1 WK POST FIRST INHIBITOR DOSE (STUDY DURATION: 17 WK), Promoter: NONE
  tumour outcome (control, treated, inhibition, significance): 100%, 100%, 0%, not significant
Carcinogen: 4-(METHYLNITROSAMINO)-1-(3-PYRIDYL)-1-BUTANONE [64091-50-5], Dose [Inhibitor]: 2 MMOL/KG IN DIET FOR 53 WK BEGINNING 1 WK PRIOR TO FIRST CARCINOGEN DOSE (STUDY DURATION: 53 WK), Species: MOUSE, Strain/Sex: A/J/FEMALE, Target Tissue: Type of Lesion: LUNG: ADENOMA OR ADENOCARCINOMA, Dose [Carcinogen]: 10 UMOL ONCE 1 WK POST FIRST INHIBITOR DOSE (STUDY DURATION: 53 WK), Promoter: NONE
  tumour outcome (control, treated, inhibition, significance): 100%, 100%, 0%, not significant
Carcinogen: 4-(METHYLNITROSAMINO)-1-(3-PYRIDYL)-1-BUTANONE [64091-50-5], Dose [Inhibitor]: 4 MMOL/KG IN DIET FOR 17 WK BEGINNING 1 WK PRIOR TO FIRST CARCINOGEN DOSE (STUDY DURATION: 17 WK), Species: MOUSE, Strain/Sex: A/J/FEMALE, Target Tissue: Type of Lesion: LUNG: ADENOMA, Dose [Carcinogen]: 10 UMOL ONCE 1 WK POST FIRST INHIBITOR DOSE (STUDY DURATION: 17 WK), Promoter: NONE
  tumour outcome (control, treated, inhibition, significance): 100%, 100%, 0%, not significant
Carcinogen: 4-(METHYLNITROSAMINO)-1-(3-PYRIDYL)-1-BUTANONE [64091-50-5], Dose [Inhibitor]: 4 MMOL/KG IN DIET FOR 53 WK BEGINNING 1 WK PRIOR TO FIRST CARCINOGEN DOSE (STUDY DURATION: 53 WK), Species: MOUSE, Strain/Sex: A/J/FEMALE, Target Tissue: Type of Lesion: LUNG: ADENOMA OR ADENOCARCINOMA, Dose [Carcinogen]: 10 UMOL ONCE 1 WK POST FIRST INHIBITOR DOSE (STUDY DURATION: 53 WK), Promoter: NONE
  tumour outcome (control, treated, inhibition, significance): 100%, 93%, 7%, not significant
Carcinogen: 7,12-DIMETHYLBENZ[A]ANTHRACENE, 57-97-6, Dose [Inhibitor]: 0, 1 MMOL/KG IN DIET FOR THE DURATION OF STUDY BEGINNING 1 WK PRIOR TO CARCINOGEN DOSE (STUDY DURATION: 105 WK), Species: RAT, Strain/Sex: SPRAGUE-DAWLEY/FEMALE, Target Tissue: Type of Lesion: MAMMARY GLAND: TUMOR, Dose [Carcinogen]: 15 MG IN 1 ML SESAME OIL ONCE, Promoter: NONE USED
  tumour outcome (control, treated, inhibition, significance): 88%, 73%, 17%, not significant
Carcinogen: 7,12-DIMETHYLBENZ[A]ANTHRACENE, 57-97-6, Dose [Inhibitor]: 0, 2 MMOL/KG IN DIET FOR THE DURATION OF STUDY BEGINNING 1 WK PRIOR TO CARCINOGEN DOSE (STUDY DURATION: 105 WK), Species: RAT, Strain/Sex: SPRAGUE-DAWLEY/FEMALE, Target Tissue: Type of Lesion: MAMMARY GLAND: TUMOR, Dose [Carcinogen]: 15 MG IN 1 ML SESAME OIL ONCE, Promoter: NONE USED
  tumour outcome (control, treated, inhibition, significance): 88%, 33%, 63%, not significant
Carcinogen: 7,12-DIMETHYLBENZ[A]ANTHRACENE, 57-97-6, Dose [Inhibitor]: 0, 2 MMOL/KG OF DIET FOR 15.5 WK BEGINNING 10 D PRIOR TO CARCINOGEN DOSE (STUDY DURATION: 17 WK), Species: RAT, Strain/Sex: SPRAGUE-DAWLEY/FEMALE, Target Tissue: Type of Lesion: MAMMARY GLAND: TUMOR, Dose [Carcinogen]: 15 MG IN 1 ML OF SESAME OIL ONCE AT 50 D OF AGE, Promoter: NONE USED
  tumour outcome (control, treated, inhibition, significance): 92%, 58%, 37%, not calculated
Carcinogen: 7,12-DIMETHYLBENZ[A]ANTHRACENE, 57-97-6, Dose [Inhibitor]: 0, 2 MMOL/KG OF DIET FOR 18.5 WK BEGINNING 10 D PRIOR TO CARCINOGEN DOSE (STUDY DURATION: 18.5 WK), Species: RAT, Strain/Sex: SPRAGUE-DAWLEY/FEMALE, Target Tissue: Type of Lesion: MAMMARY GLAND: TUMOR, Dose [Carcinogen]: 15 MG IN 1 ML OF SESAME OIL ONCE AT 50 D OF AGE, Promoter: NONE USED
  tumour outcome (control, treated, inhibition, significance): 83%, 33%, 60%, not calculated
Carcinogen: 7,12-DIMETHYLBENZ[A]ANTHRACENE, 57-97-6, Dose [Inhibitor]: 0, 2 MMOL/KG OF DIET FOR 20 D BEGINNING 10 D PRIOR TO CARCINOGEN DOSE (STUDY DURATION: 18.5 WK), Species: RAT, Strain/Sex: SPRAGUE-DAWLEY/FEMALE, Target Tissue: Type of Lesion: MAMMARY GLAND: TUMOR, Dose [Carcinogen]: 15 MG IN 1 ML OF SESAME OIL ONCE AT 50 D OF AGE, Promoter: NONE USED
  tumour outcome (control, treated, inhibition, significance): 100%, 67%, 33%, not calculated
Carcinogen: 7,12-DIMETHYLBENZ[A]ANTHRACENE, 57-97-6, Dose [Inhibitor]: 0.75 MMOL/KG OF DIET IN 25 ML OF THE VEHICLE (ETHANOL/TRICAPRYLIN 1:4 (VOL/VOL) PLUS 6% (WT/VOL) ALPHA-TOCOPHEROL) BEGIN, Species: RAT, Strain/Sex: SPRAGUE-DAWLEY/FEMALE, Target Tissue: Type of Lesion: MAMMARY GLAND: TUMOR, Dose [Carcinogen]: 75 MG/KG BW IN 1.0 ML SESAME OIL ONCE, Promoter: NONE USED
  tumour outcome (control, treated, inhibition, significance): 70%, 65%, 7%, not significant
